Source: ChEMBL document CHEMBL1157873, “Synthesis and biological activity of Delta-5,6-norcantharimides: importance of the 5,6-bridge” (Eur J Med Chem, 2010)

Experiments:
A2780 [1] = assay: Cytotoxicity against human A2780 cells at 100 uM after 72 hrs by MTT assay; type: functional; details: A2780, 72 h
[2] = Cytotoxicity against human SJ-G2 cells at 100 uM after 72 hrs by MTT assay; type: functional; details: SJ-G2, 72 h
HT-29 [3] = assay: Cytotoxicity against human HT-29 cells at 100 uM after 72 hrs by MTT assay; type: functional; details: HT-29, 72 h
A-431 [4] = assay: Cytotoxicity against human A431 cells at 100 uM after 72 hrs by MTT assay; type: functional; details: A-431, 72 h
[5] = Cytotoxicity against human BE(2)-C cells at 100 uM after 72 hrs by MTT assay; type: functional
NCI-H460 [6] = assay: Cytotoxicity against human H460 cells at 100 uM after 72 hrs by MTT assay; type: functional; details: NCI-H460, 72 h
SW480 [7] = assay: Cytotoxicity against human SW480 cells at 100 uM after 72 hrs by MTT assay; type: functional; details: SW480, 72 h
DU-145 [8] = assay: Cytotoxicity against human DU145 cells at 100 uM after 72 hrs by MTT assay; type: functional; details: DU-145, 72 h
MCF7 [9] = assay: Cytotoxicity against human MCF7 cells at 100 uM after 72 hrs by MTT assay; type: functional; details: MCF7, 72 h
[10] = Solubility of the compound; type: physicochemical
[11] = Inhibition of human red blood cells protein phosphatase 2A assessed as free phosphate ion release after 60 mins by malachite green method
[12] = Inhibition of rabbit skeletal muscle protein phosphatase 1 assessed as free phosphate ion release after 60 mins by malachite green method; design: species or system Oryctolagus cuniculus
[13] = Cytotoxicity against human SJ-G2 cells after 72 hrs by MTT assay; type: functional; details: SJ-G2, 72 h
DU-145 [14] = assay: Cytotoxicity against human DU145 cells after 72 hrs by MTT assay; type: functional; details: DU-145, 72 h
A2780 [15] = assay: Cytotoxicity against human A2780 cells after 72 hrs by MTT assay; type: functional; details: A2780, 72 h
SW480 [16] = assay: Cytotoxicity against human SW480 cells after 72 hrs by MTT assay; type: functional; details: SW480, 72 h
NCI-H460 [17] = assay: Cytotoxicity against human H460 cells after 72 hrs by MTT assay; type: functional; details: NCI-H460, 72 h
MCF7 [18] = assay: Cytotoxicity against human MCF7 cells after 72 hrs by MTT assay; type: functional; details: MCF7, 72 h
HT-29 [19] = assay: Cytotoxicity against human HT-29 cells after 72 hrs by MTT assay; type: functional; details: HT-29, 72 h
A-431 [20] = assay: Cytotoxicity against human A431 cells after 72 hrs by MTT assay; type: functional; details: A-431, 72 h
[21] = Cytotoxicity against human BE(2)-C cells after 72 hrs by MTT assay; type: functional

Compound	inhibition at 100 µM (A2780 [1]) [%]	inhibition at 100 µM [2] [%]	inhibition at 100 µM (HT-29 [3]) [%]	inhibition at 100 µM (A-431 [4]) [%]	inhibition at 100 µM [5] [%]	inhibition at 100 µM (NCI-H460 [6]) [%]	inhibition at 100 µM (SW480 [7]) [%]	inhibition at 100 µM (DU-145 [8]) [%]	inhibition at 100 µM (MCF7 [9]) [%]	also measured
O=C(O)[C@H](Cc1c[nH]cn1)N1C(=O)[C@H]2CNC[C@H]2C1=O	< 10	< 10	10	< 10	< 10	< 10	< 10	< 10	< 10	–
CCOC(=O)C[C@@H](C(=O)OCC)N1C(=O)[C@H]2CNC[C@H]2C1=O	14	< 10	15	< 10	< 10	< 10	< 10	< 10	15	–
NCCC[C@@H](C(=O)O)N1C(=O)[C@H]2CNC[C@H]2C1=O	11	< 10	12	16	23	16	11	< 10	22	–
O=C1[C@H]2CNC[C@H]2C(=O)N1N1CCOCC1	–	–	–	–	–	–	–	–	–	solubility [10]: Insoluble
O=C1[C@H]2CNC[C@H]2C(=O)N1CCN1CCOCC1	< 10	< 10	< 10	10	< 10	< 10	< 10	< 10	11	–
CN(C)CCNC(=O)[C@@H]1CNC[C@@H]1C(=O)O	–	–	–	–	–	–	–	–	–	solubility [10]: Insoluble
CC(CO)N1C(=O)[C@H]2CNC[C@H]2C1=O (stereo partly specified)	< 10	< 10	15	< 10	< 10	< 10	< 10	< 10	< 10	–
CCC(CO)N1C(=O)[C@H]2CNC[C@H]2C1=O (stereo partly specified)	< 10	< 10	< 10	< 10	< 10	< 10	< 10	< 10	< 10	–
O=C(O)[C@H](Cc1c[nH]cn1)N1C(=O)[C@H]2CSC[C@H]2C1=O	< 10	< 10	10	< 10	14	10	< 10	< 10	15	–
NCCCC[C@@H](C(=O)O)N1C(=O)[C@H]2CSC[C@H]2C1=O	16	10	22	19	22	19	< 10	< 10	30	–
CCC(CO)N1C(=O)[C@H]2CSC[C@H]2C1=O (stereo partly specified)	< 10	< 10	< 10	< 10	< 10	< 10	< 10	< 10	< 10	–
CC(CO)N1C(=O)[C@H]2CN(Cc3ccccc3)C[C@H]2C1=O (stereo partly specified)	21	18	15	< 10	10	14	12	10	22	–
CCC(CO)N1C(=O)[C@H]2CN(Cc3ccccc3)C[C@H]2C1=O (stereo partly specified)	15	< 10	14	< 10	< 10	< 10	15	< 10	< 10	–
O=C1[C@H]2CN(Cc3ccccc3)C[C@H]2C(=O)N1CCN1CCOCC1	33	25	45	11	12	< 10	49	25	51	–
CCCN1C(=O)[C@H]2CNC[C@H]2C1=O	–	–	–	–	–	–	–	–	–	solubility [10]: Insoluble
O=C1[C@H]2COC[C@H]2C(=O)N1CCN1CCOCC1	13	< 10	< 10	< 10	< 10	< 10	< 10	< 10	< 10	–
O=C(O)C[C@@H](C(=O)O)N1C(=O)[C@H]2COC[C@H]2C1=O	15	< 10	14	< 10	< 10	< 10	< 10	< 10	13	–
O=C1OC(=O)[C@@H]2CSC[C@H]12	–	–	–	–	–	–	–	–	–	IC50 [11]: > 100 µM; solubility [10]: Insoluble; IC50 [12]: > 100 µM
O=C(O)[C@H](Cc1c[nH]cn1)N1C(=O)[C@H]2COC[C@H]2C1=O	23	15	26	26	22	21	18	11	20	–
CCOC(=O)C[C@@H](C(=O)OCC)N1C(=O)[C@H]2COC[C@H]2C1=O	15	< 10	16	< 10	< 10	< 10	< 10	< 10	16	–
CCOC(=O)CC[C@@H](C(=O)OCC)N1C(=O)[C@H]2COC[C@H]2C1=O	29	< 10	30	13	< 10	13	34	20	28	–
NCCC[C@@H](C(=O)O)N1C(=O)[C@H]2COC[C@H]2C1=O	< 10	32	< 10	10	< 10	< 10	< 10	< 10	< 10	–
NCCCC[C@@H](C(=O)O)N1C(=O)[C@H]2COC[C@H]2C1=O	31	23	30	35	32	27	30	17	37	–
NCC[C@@H](C(=O)O)N1C(=O)[C@H]2CNC[C@H]2C1=O	< 10	< 10	< 10	< 10	< 10	< 10	< 10	< 10	< 10	–
CC(CO)N1C(=O)[C@H]2COC[C@H]2C1=O (stereo partly specified)	13	< 10	< 10	< 10	< 10	10	< 10	< 10	< 10	–
CCC(CO)N1C(=O)[C@H]2COC[C@H]2C1=O (stereo partly specified)	13	< 10	< 10	< 10	< 10	< 10	< 10	< 10	< 10	–
O=C1OC(=O)C2C3CCC(O3)C12 (stereo unspecified)	–	–	–	–	–	–	–	–	–	IC50 [11]: 2.7 µM; GI50 [13]: 23 µM; GI50 (DU-145 [14]): 28 µM; GI50 (A2780 [15]): 38 µM; GI50 (SW480 [16]): 44 µM; GI50 (NCI-H460 [17]): 45 µM; GI50 (MCF7 [18]): 68 µM; IC50 [12]: 7.7 µM; GI50 (HT-29 [19]): 57 µM; GI50 (A-431 [20]): 31 µM; GI50 [21]: 43 µM
C[C@@]12C(=O)OC(=O)[C@]1(C)[C@H]1CC[C@@H]2O1 [CANTHARIDIN]	–	–	–	–	–	–	–	–	–	IC50 [11]: 0.9 µM; GI50 [13]: 1.7 µM; GI50 (DU-145 [14]): 2.1 µM; GI50 (A2780 [15]): 4.4 µM; GI50 (SW480 [16]): 4.5 µM; GI50 (NCI-H460 [17]): 3.3 µM; GI50 (MCF7 [18]): 7.5 µM; IC50 [12]: 6 µM; GI50 (HT-29 [19]): 3.2 µM; GI50 (A-431 [20]): 2.9 µM; GI50 [21]: 3.7 µM
